Measurements from US7125572B2, “Tyrosinase inhibitor extract” (Kaoder Industry Company, Ltd., priority 2004, dated 2006).

Test system: tyrosinase
Assay: Determination of tyrosinase inhibitory effect (L-DOPA substrate, absorbance at 475 nm)
Settings: comparison with arbutin, determined in a way described in Example 4
Experimental: The activity of tyrosinase was determined at the wavelength of 475 nm and calculated from the decrease of the absorbance.
35 μl of the tyrosinase inhibitor extract of Example 1 and 35 μl of 80% propylene glycol were used as the test and control samples. The inhibition percent of the tyrosinase activity was calculated by the equation: Inhibition percentage (%) of the tyrosine activity=[1−(Absorbance of experiment sample)/(Absorbance of control sample)]×100%. The DOPA and tyrosinase solution (1000 units/ml in 16.7 mM potassium phosphate butter) used in the following experiments were purchased from Sigma Corp., USA.
15.1 of tyrosinase solutions was added to each (35 μl) of six samples of tyrosinase inhibitor extract of Example 1. The resultant solutions were maintained at 25. for 0, 1, 2, 3, 4, 5, 6 hours, respectively. 450.1 of L-DOPA substrate was added to each of the solutions.
15.1 of tyrosinase solutions was added to each (35 μl) of three samples of tyrosinase inhibitor extract of Example 1. The resultant solutions were maintained at 25., 37. and 50. for 1 hour, respectively. 450.1 of L-DOPA substrate was added to each of the solutions.
15.1 of tyrosinase solutions was added to each (35 μl) of five samples of tyrosinase inhibitor extract of Example 1. The resultant solutions were maintained at pH 4, 5, 6, 7 and 8 for 1 hour, respectively. […]

% inhibitory Activity: 32+−0.0%
SMILES: OC[C@H]1O[C@@H](Oc2ccc(O)cc2)[C@H](O)[C@@H](O)[C@@H]1O [Arbutin]
